Measurements: ChEMBL document CHEMBL3885881, “DrugMatrix”

Species on record: Rattus norvegicus
Experiment: DrugMatrix - Regimen: Daily Repeat
Assay type: toxicity, organism-based, Sprague-Dawley
Set-up: regimen Daily Repeat, gender Male, age 6-8 weeks
Settings: in vivo, sc, route subcutaneous, […]; for ABSOLUTE BASOPHIL / ABSOLUTE EOSINOPHIL / ABSOLUTE LYMPHOCYTE / ABSOLUTE MONOCYTE / ABSOLUTE SEGMENTED NEUTROPHIL / BASOPHIL / EOSINOPHIL / ERYTHROCYTE COUNT / HEMATOCRIT / HEMOGLOBIN / LEUKOCYTE COUNT / LYMPHOCYTE / MEAN CORPUSCULAR HEMOGLOBIN / MEAN CORPUSCULAR HEMOGLOBIN CONCENTRATION / MEAN CORPUSCULAR VOLUME / MONOCYTE / NEUTROPHIL / NUCLEATED RED BLOOD CELLS / PLATELET COUNT: tissue Blood; for ALANINE AMINOTRANSFERASE / ALBUMIN / ALKALINE PHOSPHATASE / ASPARTATE AMINOTRANSFERASE / BLOOD UREA NITROGEN / CARBON DIOXIDE / CHLORIDE / CHOLESTEROL / CREATINE PHOSPHOKINASE / CREATININE / GLUCOSE / LACTATE DEHYDROGENASE / LIPASE / PHOSPHORUS / POTASSIUM / SODIUM / TOTAL BILIRUBIN / TOTAL PROTEIN / URIC ACID: tissue Plasma
[1] = 29 mg/kg, 120 h, dose level Low, time 5 day
[2] = 1200 mg/kg, 72 h, dose level High, time 3 day
[3] = 1200 mg/kg, 120 h, dose level High, time 5 day

With `Nc1nc2c(ncn2CCC(CO)CO)c(=O)[nH]1` [PENCICLOVIR] the “ABSOLUTE BASOPHIL” value [1] was 0 CELLS/uL, the “ABSOLUTE EOSINOPHIL” value [1] was 0 CELLS/uL and the “ABSOLUTE LYMPHOCYTE” value [1] was 9185.33 CELLS/uL. For the same compound, the “ABSOLUTE MONOCYTE” value [1] was 38 CELLS/uL, the “ABSOLUTE SEGMENTED NEUTROPHIL” value [1] was 2710 CELLS/uL and the BASOPHIL [1] was 0%. For the same compound, the EOSINOPHIL [1] was 0%, the “ERYTHROCYTE COUNT” value [1] was 5.6 x10E6/uL and the HEMATOCRIT [1] was 35.77%. The HEMOGLOBIN [1] was 13.33 G/DL, the “LEUKOCYTE COUNT” value [1] was 11.93 x10E3/uL and the LYMPHOCYTE [1] was 77%. For the same compound, the “MEAN CORPUSCULAR HEMOGLOBIN” value [1] was 23.83 pg, the “MEAN CORPUSCULAR HEMOGLOBIN CONCENTRATION” value [1] was 37.27 G/DL and the “MEAN CORPUSCULAR VOLUME” value [1] was 63.8 fL. For the same compound, the MONOCYTE [1] was 0.33%, the NEUTROPHIL [1] was 22.67% and the “NUCLEATED RED BLOOD CELLS” value [1] was 0 /100WBC. The “PLATELET COUNT” value [1] was 979 x10E3/uL, the “ALANINE AMINOTRANSFERASE” value [1] was 64 u/L and the ALBUMIN [1] was 3.9 G/DL. The “ALKALINE PHOSPHATASE” value [1] was 325.67 u/L, the “ASPARTATE AMINOTRANSFERASE” value [1] was 95 u/L and the “BLOOD UREA NITROGEN” value [1] was 19 mg/dL. For the same compound, the “CARBON DIOXIDE” value [1] was 24.67 mmol/L, the CHLORIDE [1] was 105.33 MEQ/L and the CHOLESTEROL [1] was 96.67 mg/dL. For the same compound, the “CREATINE PHOSPHOKINASE” value [1] was 520.33 u/L, the CREATININE [1] was 0.18 mg/dL and the GLUCOSE [1] was 168.33 mg/dL. For the same compound, the “LACTATE DEHYDROGENASE” value [1] was 141.67 u/L, the LIPASE [1] was 8 u/L and the PHOSPHORUS [1] was 14.77 mg/dL. The POTASSIUM [1] was 6.25 MEQ/L, the SODIUM [1] was 144.77 MEQ/L and the “TOTAL BILIRUBIN” value [1] was 0.17 mg/dL. The “TOTAL PROTEIN” value [1] was 5.7 G/DL, the “URIC ACID” value [1] was 1.5 mg/dL and the “ABSOLUTE BASOPHIL” value [2] was 0 CELLS/uL. The “ABSOLUTE EOSINOPHIL” value [2] was 107.33 CELLS/uL, the “ABSOLUTE LYMPHOCYTE” value [2] was 7265 CELLS/uL and the “ABSOLUTE MONOCYTE” value [2] was 87 CELLS/uL. The “ABSOLUTE SEGMENTED NEUTROPHIL” value [2] was 974 CELLS/uL, the BASOPHIL [2] was 0% and the EOSINOPHIL [2] was 1.33%. The “ERYTHROCYTE COUNT” value [2] was 4.97 x10E6/uL, the HEMATOCRIT [2] was 30.73% and the HEMOGLOBIN [2] was 11.67 G/DL. The “LEUKOCYTE COUNT” value [2] was 8.43 x10E3/uL, the LYMPHOCYTE [2] was 86.33% and the “MEAN CORPUSCULAR HEMOGLOBIN” value [2] was 23.43 pg. For the same compound, the “MEAN CORPUSCULAR HEMOGLOBIN CONCENTRATION” value [2] was 37.97 G/DL, the “MEAN CORPUSCULAR VOLUME” value [2] was 61.77 fL and the MONOCYTE [2] was 1%. The NEUTROPHIL [2] was 11.33%, the “NUCLEATED RED BLOOD CELLS” value [2] was 0.33 /100WBC and the “PLATELET COUNT” value [2] was 1398.33 x10E3/uL. The “ALANINE AMINOTRANSFERASE” value [2] was 36 u/L, the ALBUMIN [2] was 3.13 G/DL and the “ALKALINE PHOSPHATASE” value [2] was 311.67 u/L. The “ASPARTATE AMINOTRANSFERASE” value [2] was 64.33 u/L, the “BLOOD UREA NITROGEN” value [2] was 12.33 mg/dL and the “CARBON DIOXIDE” value [2] was 28 mmol/L. The CHLORIDE [2] was 105.5 MEQ/L, the CHOLESTEROL [2] was 58.33 mg/dL and the “CREATINE PHOSPHOKINASE” value [2] was 201.33 u/L. The CREATININE [2] was 0.19 mg/dL, the GLUCOSE [2] was 132.67 mg/dL and the “LACTATE DEHYDROGENASE” value [2] was 105.67 u/L. For the same compound, the LIPASE [2] was 6.5 u/L, the PHOSPHORUS [2] was 10.63 mg/dL and the POTASSIUM [2] was 5.8 MEQ/L. The SODIUM [2] was 147.5 MEQ/L, the “TOTAL BILIRUBIN” value [2] was 0.0667 mg/dL and the “TOTAL PROTEIN” value [2] was 5.97 G/DL. For the same compound, the “URIC ACID” value [2] was 0.93 mg/dL, the “ABSOLUTE BASOPHIL” value [3] was 0 CELLS/uL and the “ABSOLUTE EOSINOPHIL” value [3] was 219.33 CELLS/uL. For the same compound, the “ABSOLUTE LYMPHOCYTE” value [3] was 14998.67 CELLS/uL, the “ABSOLUTE MONOCYTE” value [3] was 280 CELLS/uL and the “ABSOLUTE SEGMENTED NEUTROPHIL” value [3] was 5502 CELLS/uL. For the same compound, the BASOPHIL [3] was 0%, the EOSINOPHIL [3] was 1% and the “ERYTHROCYTE COUNT” value [3] was 4.92 x10E6/uL. The HEMATOCRIT [3] was 30.6%, the HEMOGLOBIN [3] was 11.77 G/DL and the “LEUKOCYTE COUNT” value [3] was 21 x10E3/uL. The LYMPHOCYTE [3] was 71.33%, the “MEAN CORPUSCULAR HEMOGLOBIN” value [3] was 23.97 pg and the “MEAN CORPUSCULAR HEMOGLOBIN CONCENTRATION” value [3] was 38.47 G/DL. For the same compound, the “MEAN CORPUSCULAR VOLUME” value [3] was 62.2 fL, the MONOCYTE [3] was 1.33% and the NEUTROPHIL [3] was 26.33%. The “NUCLEATED RED BLOOD CELLS” value [3] was 0 /100WBC, the “PLATELET COUNT” value [3] was 2260.33 x10E3/uL and the “ALANINE AMINOTRANSFERASE” value [3] was 31.33 u/L. For the same compound, the ALBUMIN [3] was 2.63 G/DL, the “ALKALINE PHOSPHATASE” value [3] was 297.33 u/L and the “ASPARTATE AMINOTRANSFERASE” value [3] was 73.67 u/L. The “BLOOD UREA NITROGEN” value [3] was 22 mg/dL, the “CARBON DIOXIDE” value [3] was 25.33 mmol/L and the CHLORIDE [3] was 103 MEQ/L. For the same compound, the CHOLESTEROL [3] was 52 mg/dL, the “CREATINE PHOSPHOKINASE” value [3] was 232.33 u/L and the CREATININE [3] was 0.34 mg/dL. The GLUCOSE [3] was 147 mg/dL, the “LACTATE DEHYDROGENASE” value [3] was 216.33 u/L and the LIPASE [3] was 6.67 u/L. The PHOSPHORUS [3] was 12 mg/dL, the POTASSIUM [3] was 6.2 MEQ/L and the SODIUM [3] was 143.07 MEQ/L. For the same compound, the “TOTAL BILIRUBIN” value [3] was 0.1 mg/dL, the “TOTAL PROTEIN” value [3] was 5.73 G/DL and the “URIC ACID” value [3] was 2.3 mg/dL.
